Like-named read-outs stand apart in the source and are kept apart here.
Columns and labels:
MCF-7 cells = experiment: Cytotoxicity against MCF-7 cells, MTT assay (single dose and five doses); details: for Average OD / OD1 / OD2 / OD3: MCF-7, single dose 100 μg/mL, MTT optical density; for Average OD: average of triplicates; for OD1: replicate 1; for OD2: replicate 2; for OD3: replicate 3
VEGFR-2 = target: T1, VEGFR-2 (Homo sapiens, UniProt P35968); experiment: VEGFR-2 kinase inhibition, luminescent VEGFR2 (KDR) kinase assay kit (BPS Bioscience # 40325); type: biochemical; details: for VEGFR-2 enzyme inhibition LogIC50 (Fig. 3): unit not given
T1 construct: purchased BPS Bioscience 40325
Experimental: Functionally, this pathway operates in autocrine and intracrine modes to promote cell proliferation, survival, and resistance to apoptosis through downstream effectors such as PI3K/AKT and p38 MAPK.
(§1) SIT, FLU and TNZ were tested using the five dose sigmoidal curves to determine the IC50 values. […] At the end of these experiment, anti-tumor potentiality was recorded using tumor weight (mg), tumor volume (mm^3), and the tumor inhibition ratio (TIR%). Hematological parameters of Hemoglobin (Hb, g/dL), RBC’s count (10^6/μL), and WBC’s count (10^3/μL) were investigated, along with histopathological and immunohistochemical staining of the VEGR2 protein.
Compounds Itraconazole. […] [12].

MCF-10A cells = experiment: Cytotoxicity against MCF-10A cells, MTT assay (five doses); type: cell-based; details: Homo sapiens, MCF-10A normal cells, five dose concentrations, n = 3, read-out: MCF-10A IC50 ± SD
VEGF = experiment: Immunohistochemical staining of VEGF in SEC tumor sections; type: in vivo, mice; details: IHC of SEC tumor
Description: VEGF has been considered a biomarker for VEGFR-2 bioactivity, as it binds to and activates this kinase receptor, playing a crucial role in angiogenesis. High VEGF levels are often associated with increased VEGFR-2 expression and activity, making VEGF a marker for VEGFR-2's function and tumor growth. […] The staining intensity is strong (+ 3), with dark brown cytoplasmic staining in most tumor cells. The immunoreactive score (IRS), calculated by multiplying the staining intensity score and the percentage of positive cells, is 9–12, indicating a high level of VEGF expression. This intense VEGF expression correlates with the presence of numerous irregular and dilated blood vessels in the tumor microenvironment.
The paraffin-infiltrated tissue was sliced into thin sections (4-6 μm) using a microtome and floated in a water bath. The sections were then mounted onto charged slides and left to dry overnight. The use of charged slides ensures the sections adhere properly to the slide. To carry out antibody staining, the paraffin wax was removed from the sample, and the tissue was rehydrated. The paraffin was eliminated by placing the tissue sections in three containers of xylene for 5 minutes each. Rehydration began by immersing the sections in two containers of 100% ethanol for 10 minutes each, followed by two containers of 95% ethanol for 10 minutes each. Finally, to complete the rehydration, the sections were washed twice in deionized water for 5 minutes each.
For antigen retrieval, the slides are heated in 10 mM Tris/1 mM EDTA, pH 9.0, kept at a sub-boiling temperature for 18 minutes, and then allowed to cool at room temperature for 30 minutes. For chromogenic staining detection, the sections are rinsed in deionized water three times for 5 minutes each, and then the endogenous peroxidase activity in the tissue sections is quenched to prevent high background staining by incubating the sections in 3% hydrogen peroxide for 10 minutes. Afterward, the sections are washed twice in deionized water for 5 minutes each, followed by a single wash in wash buffer for 5 minutes. A hydrophobic pen is used to carefully draw a large circle around the sample, ensuring it doesn’t touch the sample, creating a hydrophobic boundary to achieve optimal antibody staining quality. To prevent non-specific antibodies from binding to the tissue, each section is blocked with 100–400 µl of blocking solution for 1 hour at room temperature in a humidified chamber. The blocking solution was discarded, and 100–400 µl of diluted primary antibody was applied. […]
The slides were incubated overnight at 4°C in a humidified chamber. […] Then, 100–400 µl of Signal Stain DAB was applied to each section and monitored closely for 1–10 minutes until an acceptable staining intensity was achieved. […]

[1] = tested on: Solid Ehrlich Carcinoma (SEC); experiment: In vivo anti-tumor activity in solid Ehrlich carcinoma (SEC)-bearing mice (tumor mass, volume, TIR%, hematology, histopathology)
Experimental: All experimental protocols were approved by the Research Ethics Committee and Institutional Animal Care and Use Committee, Faculty of Science, Suez Canal University with the ethical code (SCU-Sci-REC439/2025), and all methods were carried out according to the European Union guidelines and in accordance with ARRIVE guidelines. All animals were anesthetized using a combination of Xylazine 10 mg/kg- Ketamine 100 mg/kg of body weight, respectively, prior sacrifice via cervical decapitation.
In all graphs, treatments were administrated intraperitoneal (IP) with 6 mg/Kg B.Wt. for two weeks, day after day.
as §1, with “values. They were tested for the VEGFR2 inhibition using VEGFR2 Kinase Inhibition Assay Kit Catalog # 40325 BPS Bioscience, San Diego, CA.” for “values.”
Adult female Swiss albino mice purchased from Faculty of Pharmacy, Suez Canal University, Ismailia, Egypt, with an average body weight of (18-23) g was used. Mice were housed under constant conditions of 12 h light/dark cycle in a […], with free access to standard laboratory mice food and water. All procedures related to care and maintenance of the animals were performed according to the international guiding principles for animal research and approved by the Faculty of Pharmacy, Suez Canal University bioethics and animal ethics committee.
Solid Ehrlich carcinoma (SEC) was got from the National Cancer Institute (Cairo University, Egypt). The tumor cell line proliferated in mice through serial intraperitoneal (I.P.) transplantation of a volume of 0.2 mL physiological saline containing 1×10^6 viable cells for 24 h. SEC cells were collected 7 days after I.P. implantation. The harvested cells were diluted with saline to obtain a concentration of 5×10^6 viable SEC cells/mL. A volume of 0.2 mL saline contains 1×10^6 SEC cells that were I.P. implanted into each normal mouse. SEC cells (1×10^6 tumor cells/mouse) were implanted subcutaneously into the right thigh of the hind limb.
The experimental animals were randomly divided into four groups. Group 1 served as the normal saline control. Group 2 served as the SEC control (1×10^6 cells/mouse). Group 3 served as the ITR-treated group (6 mg/kg B.Wt., I.P.). […] Body weight and survival were recorded daily until the 24th day in both treated and control groups. At the end of the experiment, anesthetized animals were then sacrificed for evaluation of the antitumor activity and histopathological examination.
It includes tumor volume, weight, and tumor inhibition ratio (TIR%). Time interval measurements of tumor volume using a digital Vernier caliper (Tricle Brand, Shanghai, China). Measure tumor length and width using a clipper and then calculate tumor volume using formulations V = (L x W x W)/2, where V is tumor volume, W is tumor width, L is tumor length. While TIR% was calculated according to the following equation Tumor volume Control-Tumor volume (treated)Tumor volume (control)x 100.
Specimens of liver-sacrificed mice were fixed in 10% saline formalin. The fixed liver specimens were Dehydrated in ascending series of ethyl alcohol and embedded in paraffin.

[2] = Homo sapiens, MCF7, read-out: Average viability%
[3] = Homo sapiens, MCF7, read-out: Viability (%) 1
[4] = Homo sapiens, MCF7, read-out: Viability (%) 2
[5] = Homo sapiens, MCF7, read-out: Viability (%) 3
[6] = enzyme inhibition, dose-response, non-linear regression, read-out: VEGFR-2 inhibition IC50
[7] = Homo sapiens, MCF7, read-out: MCF-7 IC50 ± SD, MCF-7, five dose concentrations, MTT, n = 3

T1 sequence (P35968 20-1356): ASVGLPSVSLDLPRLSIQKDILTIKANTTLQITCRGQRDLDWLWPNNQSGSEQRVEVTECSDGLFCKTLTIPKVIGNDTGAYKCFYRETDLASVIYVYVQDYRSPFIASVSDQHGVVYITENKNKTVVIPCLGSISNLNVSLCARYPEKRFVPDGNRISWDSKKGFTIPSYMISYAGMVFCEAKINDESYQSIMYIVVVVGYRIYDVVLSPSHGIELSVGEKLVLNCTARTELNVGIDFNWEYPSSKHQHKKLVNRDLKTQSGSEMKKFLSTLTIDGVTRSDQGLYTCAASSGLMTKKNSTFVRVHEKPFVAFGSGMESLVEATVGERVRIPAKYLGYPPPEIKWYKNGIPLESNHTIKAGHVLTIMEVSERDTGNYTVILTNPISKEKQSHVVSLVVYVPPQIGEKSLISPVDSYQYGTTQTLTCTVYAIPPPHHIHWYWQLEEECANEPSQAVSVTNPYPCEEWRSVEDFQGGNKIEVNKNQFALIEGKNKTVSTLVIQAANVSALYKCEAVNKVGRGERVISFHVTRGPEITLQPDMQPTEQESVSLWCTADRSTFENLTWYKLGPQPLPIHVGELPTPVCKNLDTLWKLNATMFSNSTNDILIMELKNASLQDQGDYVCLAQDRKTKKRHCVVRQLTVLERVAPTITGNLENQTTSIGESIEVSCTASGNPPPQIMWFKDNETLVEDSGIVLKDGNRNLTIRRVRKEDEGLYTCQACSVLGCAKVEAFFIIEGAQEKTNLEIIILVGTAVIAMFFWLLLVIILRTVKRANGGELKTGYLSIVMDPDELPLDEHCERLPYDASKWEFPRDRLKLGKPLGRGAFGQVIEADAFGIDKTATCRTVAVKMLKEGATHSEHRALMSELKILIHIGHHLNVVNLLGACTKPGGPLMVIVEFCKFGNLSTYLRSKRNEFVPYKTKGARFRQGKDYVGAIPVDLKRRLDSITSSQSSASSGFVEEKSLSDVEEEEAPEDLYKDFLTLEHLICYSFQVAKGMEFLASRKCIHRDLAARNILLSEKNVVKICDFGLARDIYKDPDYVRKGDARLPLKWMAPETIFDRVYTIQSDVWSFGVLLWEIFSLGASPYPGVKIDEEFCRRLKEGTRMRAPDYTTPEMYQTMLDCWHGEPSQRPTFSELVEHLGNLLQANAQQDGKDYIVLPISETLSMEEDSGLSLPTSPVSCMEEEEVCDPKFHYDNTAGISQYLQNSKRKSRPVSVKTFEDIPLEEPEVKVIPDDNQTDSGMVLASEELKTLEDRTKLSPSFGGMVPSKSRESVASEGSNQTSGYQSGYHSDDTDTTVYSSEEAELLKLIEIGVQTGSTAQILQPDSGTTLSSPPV

Row | SMILES | viability at 100 µg/mL (MCF-7 cells; [2]) [%] | viability at 100 µg/mL (MCF-7 cells; [3]) [%] | viability at 100 µg/mL (MCF-7 cells; [4]) [%] | viability at 100 µg/mL (MCF-7 cells; [5]) [%] | Average OD (MCF-7 cells) | OD1 (MCF-7 cells) | OD2 (MCF-7 cells) | OD3 (MCF-7 cells) | VEGFR-2 enzyme inhibition LogIC50 (Fig. 3) (VEGFR-2; dose-response curve fit) | IC50 (MCF-7 cells; [7]) [µM] | IC50 (MCF-10A cells) [µM] | further results
1 | CCCCc1nc(Cl)c(CO)n1Cc1ccc(-c2ccccc2-c2nn[nH]n2)cc1 [Losartan, losartan] | 71 | 71.4 | 69.1 | 72.3 | 2.29 | 2.30 | 2.23 | 2.33 |  |  |  | 
2 | OC(Cn1cncn1)(Cn1cncn1)c1ccc(F)cc1F [Fluconazole, fluconazole] | 64.3 | 62.7 | 67.3 | 62.9 | 2.07 | 2.02 | 2.17 | 2.03 | 2.535 | 260 | 32.3 ± 1.77 | IC50 (VEGFR-2; [6]): 343000 nM; IC50 (MCF-7 cells; read-out: MCF-7 IC50 ± SD, MCF-7, five dose concentrations, MTT, n = 3, listed as FLU): 261 ± 6.8 µM
3 | Clc1ccc(COC(Cn2ccnc2)c2ccc(Cl)cc2Cl)c(Cl)c1 (stereo not shown) [Miconazole, miconazole] | 76 | 77 | 76 | 75 | 2.45 | 2.48 | 2.45 | 2.42 |  |  |  | 
4 | N[C@@H](CC(=O)N1CCn2c(nnc2C(F)(F)F)C1)Cc1cc(F)c(F)cc1F [Sitagliptin, sitagliptin] | 64.6 | 65.7 | 64.4 | 63.8 | 2.08 | 2.12 | 2.08 | 2.06 | 2.016 | 183 | 37.6 ± 1.9 | IC50 (VEGFR-2; [6]): 104000 nM; IC50 (MCF-7 cells; read-out: MCF-7 IC50 ± SD, MCF-7, five dose concentrations, MTT, n = 3, listed as SIT): 183 ± 3.1 µM
5 | CCS(=O)(=O)CCn1c([N+](=O)[O-])cnc1C [Tinidazole, tinidazole] | 67.5 | 68.2 | 66.2 | 68 | 2.16 | 2.20 | 2.14 | 2.19 | 1.913 | 301 | 51.5 ± 1.8 | IC50 (VEGFR-2; dose-response curve fit, unit inferred, read-out: VEGFR-2 enzyme inhibition IC50 (Fig. 3)): 81900 nM; IC50 (VEGFR-2; enzyme inhibition, unit printed as nM in text, read-out: VEGFR-2 inhibition IC50): 81900 nM; IC50 (MCF-7 cells; read-out: MCF-7 IC50 ± SD, MCF-7, five dose concentrations, MTT, n = 3, listed as TNZ): 301 ± 7.6 µM
6 | COc1cccc2c1C(=O)c1c(O)c3c(c(O)c1C2=O)C[C@@](O)(C(=O)CO)C[C@@H]3O[C@H]1C[C@H](N)[C@H](O)[C@H](C)O1 [DOX, doxorubicin] | 46.2 | 41.9 | 42.9 | 53.6 | 1.49 | 1.35 | 1.38 | 1.73 |  | 3.91 ± 0.6 | 38.9 ± 1.1 | 
7 | O=C1CN(/N=C/c2ccc(-c3ccc([N+](=O)[O-])cc3)o2)C(O)=N1 [Dantrolene, dantrolene] | 70 | 72 | 65.7 | 72.5 | 2.26 | 2.32 | 2.12 | 2.34 |  |  |  | 
8 | CNC(=O)c1cc(Oc2ccc(NC(=O)Nc3ccc(Cl)c(C(F)(F)F)c3)cc2)ccn1 [Sorafenib] |  |  |  |  |  |  |  |  |  |  |  | immunoreactive score (IRS) (VEGF; scale 0-12, SEC control 9–12): 1–2; percentage of VEGF-positive tumor cells (VEGF; SEC control 80–90%): 10–30%; solid tumor mass ([1]; 6 mg/Kg B.Wt. IP, two weeks, day after day, SEC control 469 mg): 229 mg; tumor volume ([1]; 6 mg/Kg B.Wt. IP, two weeks, day after day, SEC control 420 mm^3): 214 mm^3; WBC's count ([1]; 6 mg/Kg IP, normal 5, SEC control 9.2): 6.6 10^3/µL; RBC's count ([1]; 6 mg/Kg IP, normal 6.9, SEC control 3.1): 4.9 10^6/µL; Hemoglobin level ([1]; 6 mg/Kg IP, normal 11.6, SEC control 4.6): 6.9 g/dL; Tumor cell density (histopathology of SEC mass) ([1]; isolated tumor mass, SEC control 2.2 cm^2): 0.5 cm^2
